Test results from PMC5031696, “Synthesis, Biodistribution and In vitro Evaluation of Brain Permeable High Affinity Type 2 Cannabinoid Receptor Agonists [^11C]MA2 and [^18F]MA3” (Frontiers in Neuroscience, 2016).
Like-named read-outs stand apart in the source and are kept apart here.

Columns and labels:
[1] = target: T1, hCB2 (Homo sapiens, UniProt P34972); test: functional cAMP assay, hCB2; assay type: cell-based; conditions: for functional behaviour in cAMP assay: hCB2
T1 construct: host or cells: CHO-K1 beta-arrestin cells
T1 sequence (P34972 whole entry): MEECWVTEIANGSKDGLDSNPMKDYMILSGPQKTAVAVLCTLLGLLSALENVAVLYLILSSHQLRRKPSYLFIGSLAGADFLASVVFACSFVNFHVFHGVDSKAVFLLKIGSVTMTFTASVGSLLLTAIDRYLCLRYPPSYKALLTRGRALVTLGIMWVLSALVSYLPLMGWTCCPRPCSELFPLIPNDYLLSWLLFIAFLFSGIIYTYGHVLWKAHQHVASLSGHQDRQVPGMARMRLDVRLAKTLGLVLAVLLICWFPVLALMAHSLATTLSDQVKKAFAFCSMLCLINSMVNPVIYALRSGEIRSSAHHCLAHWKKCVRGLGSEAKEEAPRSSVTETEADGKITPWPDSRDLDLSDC
Method: (§1) CHO-K1 beta-arrestin cells (DiscoveRx, Fremont, CA) expressing hCB2, mouse CB2 (mCB2), and human CB1 (hCB1) were cultured in F-12 Nutrient Mixture (HAM) supplemented with 10% fetal bovine serum (FBS), 300 μg/mL hygromycin and 800 μg/mL geneticin (G418). Cells were incubated in a humidified atmosphere at 37°C with 5% CO2.
(§2) cAMP was measured using cAMP-Nano-TRF detection kit (Roche Diagnostics, Penzberg, Germany). Cells were seeded 17–24 h prior to the experiment 3 × 10^4 cells per well in a black 96-well plate with flat clear bottom (Corning, Wiesbaden, Germany) in growth medium and incubated in 5% CO2 at 37°C in a humidified incubator. The growth medium was exchanged with Krebs Ringer bicarbonate buffer with 1 mmol/L 3-isobutyl-1-methylxanthine (IBMX), 0.1% fatty acid-free bovine serum albumin (BSA) and incubated at 30°C for 60 min. Agonist was added to a final assay volume of 100 μL and the mixture was incubated for 30 min at 30°C. The assay was stopped by the addition of 50 μL 3x lysis reagent and shaken for 2 h at room temperature. The time-resolved energy transfer was measured using an LF502 Nanoscan FLT (IOM, Berlin, Germany), equipped with a laser as excitation source. cAMP content was determined from the function of a standard curve spanning from 10 to 0.13 nmol/L cAMP.

[2] = target: T2, mCB2 (Mus musculus, UniProt P47936); test: functional cAMP assay, mCB2; assay type: cell-based
T2 construct: host or cells: CHO-K1 beta-arrestin cells
T2 sequence (P47936 whole entry): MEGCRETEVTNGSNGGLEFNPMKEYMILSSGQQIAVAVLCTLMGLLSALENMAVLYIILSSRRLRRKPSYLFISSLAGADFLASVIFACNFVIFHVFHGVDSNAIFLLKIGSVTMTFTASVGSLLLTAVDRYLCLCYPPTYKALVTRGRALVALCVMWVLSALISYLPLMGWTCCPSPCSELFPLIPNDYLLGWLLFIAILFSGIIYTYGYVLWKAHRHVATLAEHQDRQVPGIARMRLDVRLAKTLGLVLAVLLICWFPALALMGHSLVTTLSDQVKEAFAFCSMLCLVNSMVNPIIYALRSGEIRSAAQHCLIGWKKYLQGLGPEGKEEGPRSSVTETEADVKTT
Method: as §1, §2

[3] = target: T1, hCB2; test: radioligand binding assay with [^3H]CP55940, hCB2
Method: as §1
(§3) Stably transfected cells were treated for 24 h with 5 mM butyrate in growth medium before harvesting, followed by homogenization in 15 mmol/L Hepes, 0.3 mmol/L EDTA, 1 mmol/L EGTA, 2 mmol/L MgCl2, complete EDTA-free protease inhibitor (Roche Applied Science, Rotkreuz, Switzerland), pH 7.4 using a glass potter and centrifugation at 47,800 g at 4°C for 30 min. The pellet was then rehomogenized twice in the same buffer and centrifuged (47,800 g, 4°C, 30 min). The final pellet was then resuspended in 75 mmol/L Tris, 0.3 mmol/L EDTA, 1 mmol/L EGTA, 12.5 mmol/L MgCl2, 250 mmol/L sucrose, pH 7.4 at a protein concentration of 1 to 3 mg/mL, aliquoted, frozen on dry ice and stored at −80°C. Saturation binding was performed with 0.05 to 2.6 nM [^3H]CP55940 (Perkin Elmer) and 1.0 μg of membrane protein. CP55940 (10 μM) was used to define non-specific binding. More than 95% of the total binding signal was specific. Assay buffer consisted of 50 mmol/L Tris-HCl, 5 mmol/L MgCl2, 2.5 mmol/L EGTA, and 0.1% fatty acid-free BSA, pH 7.4. Assays were initiated by addition of membranes in a final volume of 250 μL/well. Mixtures were incubated for 3 h at room temperature and then vacuum filtered and rinsed with wash buffer (50 mmol/L Tris-HCl, 5 mmol/L MgCl2, 2.5 mmol/L EGTA, and 0.5% fatty acid-free BSA, pH 7.4) on a Filtermate cell harvester through Packard GF/B filters presoaked in 0.3% polyethylenimine.
(§4) For competition binding, membrane preparations were incubated with 0.3 nM [^3H]CP55940 in the presence or absence of increasing concentrations of ligands for 60 min at 30°C in a final volume of 0.2 mL of 50 mmol/L Tris-HCl, 5 mmol/L MgCl2, 2.5 mmol/L EGTA, 0.1% fatty acid-free BSA, and 1% DMSO, pH 7.4, buffer, gently shaking. Non-specific binding was defined with 10 μM CP55940. All binding reactions were terminated by vacuum filtration onto 0.5% polyethylenimine presoaked GF/B filter plates (Packard) followed by seven brief washes with 2 mL of ice-cold binding buffer containing 0.5% fatty acid-free BSA. Plates were dried at 50°C for 1 h and liquid scintillation counting was used to determine bound radiolabel. IC50 values and Hill slopes were determined by a four parameter logistic model using ActivityBase (ID Business Solution, Guilford, UK). pKi values were determined by the generalized Cheng-Prusoff equation (Yung-Chi and Prusoff, [1973]).

[4] = target: T3, hCB1 (Homo sapiens, UniProt P21554); test: functional cAMP assay, hCB1 versus hCB2; assay type: cell-based; conditions: cAMP assays
T3 construct: host or cells: CHO-K1 beta-arrestin cells
T3 sequence (P21554 whole entry): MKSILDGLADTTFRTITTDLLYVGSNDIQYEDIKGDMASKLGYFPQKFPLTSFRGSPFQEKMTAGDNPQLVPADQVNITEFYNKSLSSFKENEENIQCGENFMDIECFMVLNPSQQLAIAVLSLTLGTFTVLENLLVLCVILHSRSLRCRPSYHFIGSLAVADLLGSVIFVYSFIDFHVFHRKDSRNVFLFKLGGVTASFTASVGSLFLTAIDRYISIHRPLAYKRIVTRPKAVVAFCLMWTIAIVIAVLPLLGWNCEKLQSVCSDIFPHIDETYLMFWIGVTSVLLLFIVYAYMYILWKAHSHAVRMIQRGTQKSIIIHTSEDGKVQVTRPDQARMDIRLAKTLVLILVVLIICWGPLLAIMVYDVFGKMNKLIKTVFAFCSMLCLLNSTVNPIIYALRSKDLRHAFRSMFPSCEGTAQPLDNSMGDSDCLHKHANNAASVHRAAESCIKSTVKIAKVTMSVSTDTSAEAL
Method: as §1, §2

[5] = target: T2, mCB2; test: radioligand binding assay with [^3H]CP55940, mCB2
Method: as §1, §3, §4

[6] = target: T3, hCB1; test: radioligand binding assay with [^3H]CP55940, hCB1; conditions: for Ki ratio hCB1/hCB2: selectivity
Method: as §1, §3, §4

[7] = CHO-K1 cells expressing hCB2, read-out: hCB2 cAMP EC50
[8] = CHO-K1 cells expressing mCB2, read-out: mCB2 cAMP EC50
[9] = competition with [^3H]CP55940, read-out: hCB2 Ki
[10] = competition with [^3H]CP55940, read-out: mCB2 Ki
[11] = competition with [^3H]CP55940, read-out: hCB1 Ki

Row | Structure (SMILES) | hCB2 cAMP % eff (efficacy) ([1]; CHO-K1 cells expressing hCB2) | EC50 [1, 7] | functional behaviour in cAMP assay [1] | mCB2 cAMP % eff (efficacy) ([2]; CHO-K1 cells expressing mCB2) | EC50 [2, 8] | Ki [3, 9] | EC50 ratio hCB1/hCB2 [4] | Ki [5, 10] | Ki [6, 11] | Ki ratio hCB1/hCB2 [6] | EC50 [1] | EC50 [2] | Ki [3] | Ki [5] | Ki [6] | times higher hCB2 affinity compared to 12 ([3]; Ki comparison) | times higher hCB2 affinity compared to MA2 ([3]; Ki comparison) | times higher hCB2 affinity compared to NE40 ([3]; Ki comparison)
1 | Fc1ccc(-c2noc(CCCNc3cnc4ccc(OC(F)(F)F)cc4c3)n2)c(Cl)c1 [Compound 12, reference compound] | 100% | 0.15 nM | agonists | 100% | 0.18 nM | 2.8 nM | 1300 | 4.6 nM | 568 nM | 202 |  |  |  |  |  |  |  | 
2 | COc1ccc2ncc(NCCCc3nc(-c4ccc(F)cc4Cl)no3)cc2c1 [MA2, N-(3-(3-(2-chloro-4-fluorophenyl)-1,2,4-oxadiazol-5-yl)propyl)-6-methoxyquinolin-3-amine] | 101% |  | agonists | 100% |  |  | 430 |  |  | 19 | 3 nM | 2 nM | 87 nM | 241 nM | 1610 nM |  |  | 
3 | FCCOc1ccc2ncc(NCCCc3nc(-c4ccc(F)cc4Cl)no3)cc2c1 [MA3, 6-(2-Fluoroethoxy)-N-(3-(3-(2-chloro-4-fluorophenyl)-1,2,4-oxadiazol-5-yl)propyl)quinolin-3-amine] | 102% | 0.13 nM | agonists | 101% | 0.09 nM | 0.8 nM | 563 | 2.6 nM | 102 nM | 127 |  |  |  |  |  | about 4 | about 100 | 5
